Results: patent US9682060B2, “Small molecules that induce intrinsic pathway apoptosis” (The Board of Trustees of the University of Illinois, priority 2015, dated 2017)

Key:
[1] = Pharmacokinetic profiling in mice; type: in vivo, C57BL/6 mice; details: 37.5 mg/kg intravenously
Protocol: Pharmacokinetics and Toxicity Profiling in Mice.
All animal studies were performed with prior approval by the University of Illinois at Urbana-Champaign IACUC committee. Eight week old female C57BL/6 mice were used for all pharmacokinetic and toxicity experiments. […]. For toxicity assessment, Raptinal was administered intravenously as a single-dose injection across a dose range of 15-60 mg/kg, and mice were sacrificed 7 days post-injection for evidence of hematologic toxicity (n=3 mice/group).

3T3 = experiment: Raptinal toxicity, 24 hour IC50 (sulforhodamine B assay for adherent cells); type: cell-based; details: NIH3T3; 3T3 (Mouse Embryonic Fibroblasts); 24 hour incubation; mean ± SD
Protocol: (§1) Sulforhodamine B Assay for Adherent Cells.
(§2) Serial dilutions of compound in 100% DMSO were added in triplicate (2 μL to each well) to empty wells of a 96-well plate. Adherent cells (3T3, Hs888Lu, MCF-7, HeLa, WT-MEF, 4T1, B16-F10, SK-MEL-5, MIA PaCa2, BT-549, MDA-MB-436, 143B, HOS, H460, H1993) cells were added to each well (5×10^3 cells in 198 μL of RPMI 1640, DMEM or EMEM media). The plates were incubated for 24 hours. The media was removed from the plate and ice-cold trichloroacetic acid (100 μL of 10% w/v trichloroacetic acid) was added to the plates which were then incubated at 4° C. overnight to fix the cells. The trichloroacetic acid was removed and the wells washed with 200 μL of de-ionized water 5 times. Sulforhodamine B (200 μL of 0.04% sodium salt dissolved in 1% acetic acid) was added to each well and the plates incubated at room temperature for 30 min. Excess sulforhodamine B was removed by washing the plates 5 times with 1% acetic acid. The bound dye was released by the addition of unbuffered Tris-base (200 μL of 10 mM solution) and after a 30 min incubation at room temperature the absorbance at 510 nm was measured (Molecular Devices SpectraMax Plus 384 plate reader). The mean IC50 values and standard deviations were determined from three independent experiments.

143B = experiment: as above; type: cell-based; details: 143B (Human Osteosarcoma); 24 hour incubation; mean ± SD
Protocol: as §1, §2

MIA PaCa-2 = experiment: as above; type: cell-based; details: MIA PaCa-2 (Human Pancreatic Cancer); 24 hour incubation; mean ± SD
Protocol: as §1, §2

Hs888Lu = experiment: as above; type: cell-based; details: Hs888Lu (Human lung fibroblast); 24 hour incubation; mean ± SD
Protocol: as §1, §2

MDA-MB-436 = experiment: as above; type: cell-based; details: MDA-MB-436 (Human Breast Cancer); 24 hour incubation; mean ± SD
Protocol: as §1, §2

H1993 = experiment: as above; type: cell-based; details: NCI-H1993; H1993 (Human Lung Cancer); 24 hour incubation; mean ± SD
Protocol: as §1, §2

For `O=CC1(C2(C=O)c3ccccc3-c3ccccc32)c2ccccc2-c2ccccc21` [Raptinal, [9,9′]bifluorenyl-9,9′-dicarbaldehyde], the peak plasma concentration [1] was 134.5 ± 2.2 µM, the peak plasma concentration ([1]; mean ± SD, n=3) was 54.4 ± 0.9 µg/mL and the half-life ([1]; female, C57BL/6, mouse, in vivo, iv, mean ± SD, n=3, read-out: elimination half-life) was 1.53 ± 0.0967 h. The IC50 (3T3) was 1000 ± 200 nM, the IC50 (143B) was 1200 ± 500 nM and the IC50 (MIA PaCa-2) was 1900 ± 800 nM. It also gave an IC50 (Hs888Lu) of 1700 ± 100 nM, an IC50 (MDA-MB-436) of 1100 ± 100 nM and an IC50 (H1993) of 1200 ± 100 nM.
